The text below walks through data of ChEMBL document CHEMBL2010696, “Discovery, optimisation and in vivo evaluation of novel GPR119 agonists” (Bioorg Med Chem Lett, 2011).

≈ marks a conversion by molar mass, not a printed value.

The nature of series [1]: in vivo. Conditions: mouse, po, 5 mg/kg.
Description: Half life in mouse at 5 mg/kg, po
Series [2] can be described thus: in vivo. Conditions: mouse, po, 5 mg/kg. This is another data set of the same source.
Description: Oral bioavailability in mouse at 5 mg/kg
Series [3] can be described thus: in vitro. Conditions: rat, plasma.
Description: Fraction unbound in rat plasma
A short description of series [4]: in vitro. Conditions: dog, plasma.
Description: Fraction unbound in dog plasma
Series [5] is described as follows: physchem.
Description: Solubility of the compound
Series [6] can be described thus: in vivo. Conditions: dog, iv, 2 mg/kg.
Description: Volume of distribution at steady state in dog at 2 mg/kg, iv and 13 mg/kg, po
Series [7] is described as follows: in vivo. Conditions: mouse, iv, 2 mg/kg.
Description: Half life in mouse at 2 mg/kg, iv
Series [8] in a line: in vivo. The conditions noted are these: dog, po, 13 mg/kg.
Description: Cmax in dog at 13 mg/kg, po
Series [9] in a line: in vitro. Conditions: dog, MDCK.
Description: Apparent permeability across apical to basolateral side in dog MDCK cells at 10 uM
Series [10] can be described thus: in vivo. The conditions noted are these: dog, iv, 2 mg/kg. This is another data set of the same source.
The nature of series [11]: in vivo. Conditions: mouse, iv, 2 mg/kg. This is another data set of the same source.
Description: Volume of distribution at steady state in mouse at 2 mg/kg, iv and 5 mg/kg, po
A short description of series [12]: in vivo. The conditions noted are these: rat, iv, 2 mg/kg.
Description: Volume of distribution at steady state in rat at 2 mg/kg, iv and 5 mg/kg, po
Series [13] can be described thus: in vitro. Conditions: human, Caco-2.
A short description of series [14]: in vivo. Conditions: rat, po, 5 mg/kg.
Description: Cmax in rat at 5 mg/kg, po
A short description of series [15]: physchem. Conditions: octanol/water.
Description: Lipophilicity, log D of the compound
A short description of series [16]: in vivo. The conditions noted are these: mouse, po, 5 mg/kg. The source holds these as a separate data set.
Description: Cmax in mouse at 5 mg/kg, po
Series [17] in a line: in vivo. The conditions noted are these: rat, po, 5 mg/kg. This is another data set of the same source.
Description: Half life in rat at 5 mg/kg, po
Series [18] can be described thus: in vivo. Conditions: mouse, plasma, iv, 2 mg/kg.
Series [19] is described as follows: in vitro. The conditions noted are these: mouse, plasma.
Description: Fraction unbound in mouse plasma
The nature of series [20]: in vivo. Conditions: rat, iv, 2 mg/kg. This is another data set of the same source.
Description: Half life in rat at 2 mg/kg, iv
Series [21] is described as follows: in vivo. The conditions noted are these: dog, iv, 2 mg/kg. The source holds these as a separate data set.
Description: Half life in dog at 2 mg/kg, iv
Series [22] is described as follows: in vivo. The conditions noted are these: dog, po, 13 mg/kg. This is another data set of the same source.
Description: Half life in dog at 13 mg/kg, po
The nature of series [23]: in vivo. The conditions noted are these: dog, po, 13 mg/kg. This is another data set of the same source.
Description: Oral bioavailability in dog at 13 mg/kg
A short description of series [24]: in vivo. Conditions: rat, plasma, iv, 2 mg/kg.
Series [25] in a line: in vitro. Conditions: human, plasma.
Description: Fraction unbound in human plasma
The nature of series [26]: in vivo. The conditions noted are these: rat, po, 5 mg/kg. The source holds these as a separate data set.
Description: Oral bioavailability in rat at 5 mg/kg

As for `CN(C(=O)Cc1ccc(-n2cnnn2)cc1)C1CCN(Cc2ccc(C(F)(F)F)cc2)CC1`, the half-life in the series “in vivo [1]” was 2.4 h; in the series “in vivo [7]”, 2.2 h; in “in vivo [17]”, 2.8 h; in “in vivo [20]”, 2.8 h; in the series “in vivo [21]”, 20 h; in “in vivo [22]”, 18 h. The bioavailability in “in vivo [2]” amounted to 64%; in the series “in vivo [23]”, 35%; in “in vivo [26]” it was 66%. Moreover, the fraction unbound in “in vitro [3]” is 0.081; in “in vitro [4]”, 0.068; in the series “in vitro [19]” it was 0.099; in the series “in vitro [25]”, 0.076. In addition, in “physchem [5]”, the solubility is 18 µM (≈ 8.25 µg/mL). Moreover, the figures for the Vd in the series “in vivo [6]”, in the series “in vivo [11]” and in the series “in vivo [12]” were 2.3 L/kg, 2 L/kg and 1.4 L/kg, respectively. The Cmax in the series “in vivo [8]” is 6400 nM; in “in vivo [14]”, 2400 nM; in “in vivo [16]”, 2200 nM. In addition, the Papp A→B at 10 µM in “in vitro [9]” was 17 ×10⁻⁶ cm/s; in the series “in vitro [13]”, 57 ×10⁻⁶ cm/s. The values for the clearance in the series “in vivo [10]”, in “in vivo [18]” and in the series “in vivo [24]” were 1.3 mL/min/kg, 12 mL/min/kg and 6.8 mL/min/kg, respectively. This compound showed a logD in the series “physchem [15]” of 3.
`Cc1nc(-c2ccc(CN3CCC(N(C)C(=O)Cc4ccc(-n5cnnn5)cc4)CC3)cc2)no1` yielded a logD in the series “physchem [15]” of 2.1.
The compound `CN(C(=O)Cc1ccc(-n2cnnn2)cc1)[C@H]1CCN(Cc2ccc(C(F)(F)F)cc2)C[C@H]1F` returned a log distribution coefficient (logD) in “physchem [15]” of 3.3.
For `CN(C(=O)Cc1ccc(-n2cnnn2)cc1)[C@@H]1CCN(Cc2ccc(C(F)(F)F)cc2)C[C@@H]1F`, in the series “physchem [15]”, the logD stood at 3.3.
As for `CO[C@@H]1CN(Cc2ccc(C(F)(F)F)cc2)CC[C@@H]1N(C)C(=O)Cc1ccc(-n2cnnn2)cc1`, the pH-dependent lipophilicity (logD) in the series “physchem [15]” came to 3.1.
Same read-out and setting: the result for `CO[C@H]1CN(Cc2ccc(C(F)(F)F)cc2)CC[C@H]1N(C)C(=O)Cc1ccc(-n2cnnn2)cc1` reads 3.

The term half-life denotes the time in which the quantity being followed falls by half. Low values mean rapid decline, high ones slow decline. By bioavailability is commonly meant dose-corrected exposure relative to a reference, in per cent. Broadly, the fraction unbound is the share of the substance not bound to proteins or other matrix. A higher fraction unbound goes with weak binding. In general, solubility refers to the dissolved amount per volume that the medium holds. Low values mean a poorly soluble substance, high ones a readily soluble substance. In general, Vd refers to a proportionality between amount in the body and measured concentration, not a real space. A higher Vd goes with extensive tissue distribution. As usually defined, the Cmax is the highest concentration seen after dosing. What is called Papp A→B is how fast a substance crosses the layer from the apical side. A higher Papp A→B goes with fast passage. One may read the clearance as a measure of how efficiently the substance is removed, as volume per time. A low value points to inefficient removal. The logD is the decadic logarithm of the distribution of all forms, ionised or not, between an organic phase and buffer at a given pH. A low value points to a more hydrophilic compound.
